From article PMC9849758, “Chemically diverse activity-based probes with unexpected inhibitory mechanisms targeting trypsin-like serine proteases” (Frontiers in Chemistry, 2023) come the findings set out here.

Common to all, as to assay: IC50 determination, spectrophotometric protease assay
Holding throughout (type): biochemical

Test [1] addresses T1, Trypsin-3 (recombinant trypsin-3) (Homo sapiens, UniProt P35030).
T1 construct: purchased R&D
T1 sequence (P35030 1-304): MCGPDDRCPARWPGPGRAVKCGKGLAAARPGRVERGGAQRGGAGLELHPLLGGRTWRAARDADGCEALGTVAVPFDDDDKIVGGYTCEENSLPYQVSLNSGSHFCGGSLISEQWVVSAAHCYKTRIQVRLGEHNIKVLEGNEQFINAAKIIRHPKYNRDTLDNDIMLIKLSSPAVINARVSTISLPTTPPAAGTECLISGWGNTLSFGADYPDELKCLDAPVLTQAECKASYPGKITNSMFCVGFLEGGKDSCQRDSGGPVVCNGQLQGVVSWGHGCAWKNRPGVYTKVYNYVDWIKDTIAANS
How it is done: (§1) The IC50 values were determined using a spectrophotometric assay. All the experiments were conducted in duplicate. The readout consisted of evaluating the protease-mediated release of the chromophore para-nitroaniline (pNA) or fluorophore 7-amino-4-methyl coumarin (AMC) moieties from the respective substrates. Enzymatic activity was measured for 30 min at 37°C. All compounds were initially screened at three concentrations (10, 1, and .1 μM) to estimate the range of the IC50 value. Those which were able to reduce protease activity by at least 50% at a concentration of 10 μM were submitted to an exact IC50 determination. […] A third independent experiment was performed when the standard deviation of the two independent experiments was higher than […]. IC50 values were obtained by fitting the data with the four-parameter logistics equation using GraphPad Prism 9.
(§2) The conditions for each protease are described as follows, the concentration of substrate used was at the corresponding Km.

Test [2] addresses T2, uPA (recombinant urokinase plasminogen activator) (Homo sapiens, UniProt P00749).
T2 construct: purchased HYPHEN BioMed
How it is done:
as §1, §2

Test [3] concerns the target T3, Cathepsin G (cathepsin G human neutrophil) (Homo sapiens, UniProt P08311).
T3 construct: Cathepsin G (cathepsin G human neutrophil, Sigma-Aldrich); purchased Sigma-Aldrich; host or cells: human neutrophil
T3 sequence (P08311 21-255): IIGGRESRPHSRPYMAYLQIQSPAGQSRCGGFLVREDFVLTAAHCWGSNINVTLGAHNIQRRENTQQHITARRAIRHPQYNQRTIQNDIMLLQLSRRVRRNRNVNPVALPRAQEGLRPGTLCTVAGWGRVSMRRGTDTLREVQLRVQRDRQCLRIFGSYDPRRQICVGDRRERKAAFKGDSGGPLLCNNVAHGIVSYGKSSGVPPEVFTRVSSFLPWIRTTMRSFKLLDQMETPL
On the procedure:
as §1, §2

In test [4] the target is T4, TLCK-treated pancreatic bovine chymotrypsin (Bos taurus, UniProt P00766).
T4 construct: TLCK-treated pancreatic bovine chymotrypsin (Sigma-Aldrich); purchased Sigma-Aldrich; host or cells: bovine pancreas
How it is done: as §1, §2

Test [5] addresses T5, Neutrophil Elastase (recombinant neutrophil elastase) (Homo sapiens, UniProt P08246).
T5 construct: purchased Enzo LifeSciences
T5 sequence (P08246 30-267): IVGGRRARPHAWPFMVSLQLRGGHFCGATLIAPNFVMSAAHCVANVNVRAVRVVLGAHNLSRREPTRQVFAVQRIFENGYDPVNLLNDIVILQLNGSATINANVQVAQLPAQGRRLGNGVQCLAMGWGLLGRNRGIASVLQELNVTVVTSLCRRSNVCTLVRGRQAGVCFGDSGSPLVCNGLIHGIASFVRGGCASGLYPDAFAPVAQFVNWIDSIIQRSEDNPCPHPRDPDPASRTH
On the procedure:
as §1, §2

Test [6] concerns the target T6, β-tryptase (recombinant tryptase β-2) (Homo sapiens, UniProt P20231).
T6 construct: purchased EnzoLife Sciences
On the procedure: as §1, §2

The target in test [7] is T7, Thrombin (recombinant thrombin) (Homo sapiens, UniProt P00734).
T7 construct: purchased R&D
How it is done: as §1, §2

T6 sequence (P20231 31-275): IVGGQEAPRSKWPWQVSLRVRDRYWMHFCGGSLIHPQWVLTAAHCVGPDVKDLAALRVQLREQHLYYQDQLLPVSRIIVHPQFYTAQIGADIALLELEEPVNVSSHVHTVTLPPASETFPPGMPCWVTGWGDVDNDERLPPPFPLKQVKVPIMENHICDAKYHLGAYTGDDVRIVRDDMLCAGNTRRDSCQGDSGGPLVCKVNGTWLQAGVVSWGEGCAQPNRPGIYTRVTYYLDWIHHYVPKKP

By IC50 is commonly meant the concentration needed to halve the response being measured. Turning to `CC(C)C(NC(=O)OCCCc1cn(CCOCCOCCOCCNC(=O)CCCCC[C@H]2NC(=O)N[C@H]2C)nn1)P(=O)(Oc1ccccc1)Oc1ccccc1` (stereo partly shown) [compound 44], the half-inhibitory concentration (IC50) in test [1] is more than 10 µM; in test [2], more than 10 µM; in test [3] it was more than 10 µM; in test [4], more than 10 µM; in test [5] it was 4.7 ± 0.2 µM; in test [6] it was more than 10 µM. Further, the IC50 in test [7] was more than 10 µM.
On to `C#CCCCOC(=O)NC(CCCCN)P(=O)(Oc1ccccc1)Oc1ccccc1.O=C(O)C(F)(F)F` (stereo not shown) [29b], for which the IC50 in test [1] is 0.07 ± 0.02 µM; in test [2], 5.27 ± 0.15 µM; in test [3] it was more than 10 µM; in test [4] it was 5.87 ± 3.39 µM; in test [5], more than 10 µM; in test [6] it was 3.96 ± 0.5 µM. The IC50 in test [7] was 7.36 ± 0.25 µM. Besides, in test [1] (alkyne probes, 15 min preincubation at 37°C, mean ± SD), the “Trypsin-3 IC50” value was “nanomolar inhibition”.
For `C#CCCCOC(=O)NC(C1CCNCC1)P(=O)(Oc1ccccc1)Oc1ccccc1` (stereo not shown) [23b], the concentration for half-maximal inhibition (IC50) in test [1], in test [2], in test [3], in test [4], in test [5] and in test [6] was more than 10 µM each time. For the same compound, the IC50 in test [7] was more than 10 µM.
